Results: patent US6800656B2, “Tricyclic compounds and method of treating herpes virus” (Warner Lambert Company, priority 2000, dated 2004)
pEC50: −log10 of the molar value.

Tests used:
[1] = test system: herpes simplex virus 1 (HSV); assay: microbe, parasite or virus in culture; type: cell-based; conditions: for pEC50: Human alphaherpesvirus 1, Vero; for TI (EC50/TC50): therapeutic index, HSV-1, Vero cells
Experimental: Vero (African Green Monkey kidney) cells are infected at a multiplicity of infection of 0.01 with the virus, and serial dilutions of the compound in dimethyl sulfoxide (DMSO) are added. The final concentration of DMSO in all wells is 1%. DMSO is added to control wells. The infection is allowed to proceed for 2 days at which time the β-gal activity in cell lysates is measured. Activity in wells containing compound is compared to control wells and percent inhibition determined.

in vitro = type: cell-based; conditions: for CC50: African green monkey; for CC50 at 7 days: human
Experimental: Anti-human cytomegalovirus (HCMV) activity is determined in a yield reduction assay utilizing a recombinant HCMV (RC256) that produces β-gal (Spaete, R. R.; Mocarski, E. S. Proceedings of the National Academy of Sciences USA 84:7213-7217, 1987). Primary human diploid fibroblasts (HFF cells) are infected at an moi of 0.01 with RC256, and serial dilutions of the compound in DMSO are added. The final concentration of DMSO in all wells is 1%. The infection is allowed to proceed for 7 days at which time the β-gal activity in cell lysates is measured. Activity in wells containing compound is compared to control wells and percent inhibition determined.
Cellular toxicity assays: Cellular toxicity is measured in HFF cells. Cells are plated in 96 well plates at 1×10^4 cells/well. Serial dilutions of compounds are added to the wells in DMSO, with the final concentration of DMSO in all wells at 1%, in a total volume of 200 μL. The plates are maintained in a 37° C. incubator for 7 days. 50 μL of a solution of XTT (sodium-3′[1-(phenyl-amino-carbonyl)-3,-tetrazolium]-bis(bis(4-methoxy-6-nitro)-benzene sulfonic acid hydrate) (3×10^−4 mg/ml) is added to each well, and the plates returned to the incubator for 4 hours, after which the A450 (absorbance at wavelength of 450 nm) for each well is measured in a plate reader. (Roehm, N. W., et al J. Immunol. Meth. 142:257-265, 1991). Toxicity is determined by comparison of the OD (optical density) of a well containing compound to the OD of wells containing DMSO only.

[2] = test system: human cytomegalovirus (HCMV); assay: microbe, parasite or virus in culture; type: cell-based; conditions: Human betaherpesvirus 5, HFF
Experimental: Primary human diploid fibroblasts (HFF cells) are infected at an moi of 0.01 with RC256, and serial dilutions of the compound in DMSO are added. The final concentration of DMSO in all wells is 1%. The infection is allowed to proceed for 7 days at which time the β-gal activity in cell lysates is measured. Activity in wells containing compound is compared to control wells and percent inhibition determined.

SMILES	melting point [°C]	pEC50 [1]	TI (EC50/TC50) [1]	CC50 (in vitro) [nM]	pEC50 [2]	CC50 at 7 days (in vitro) [nM]
c1cnc2c(c1)Oc1cc(NCc3cccc4ccccc34)ccc1S2 [Example 93, Naphthalene-1-ylmethyl-(10-oxa-9-thia-1-aza-anthracen-6-yl)-amine]	–	5.89	>77	> 100000	–	–
Nc1nc(O)c2ncn(COC(CO)CO)c2n1 [Ganciclovir]	–	–	–	–	5.59	> 100000
COc1cc(CNc2ccc3oc4ccccc4c3c2)cc(OC)c1 [Example 56, Dibenzofuran-2-yl-(3,5-dimethoxy-benzyl)-amine]	87 to 88	6.15	>143	> 100000	–	–
FC(F)(F)c1ccc(CNc2ccc3oc4ccccc4c3c2)cc1 [Example 57, Dibenzofuran-2-yl-(4-trifluoromethyl-benzyl)-amine]	89 to 90	6.09	>124	> 100000	5.77	> 100000
Fc1ccc(CNc2ccc3c(c2)Oc2ccccc2S3)c(F)c1 [Example 208, (2,4-Difluoro-benzyl)-phenoxathiin-3-yl-amine]	–	6.59	>385	> 100000	–	–
COc1ccc(CNc2ccc3oc4ccc(Cl)cc4c3c2)cc1F [Example 139, (8-Chloro-dibenzofuran-2-yl)-(3-fluoro-4-methoxy-benzyl)-amine]	–	6.40	>250	> 100000	–	–
COc1ccc(CNc2cccc3c2oc2ccccc23)cc1 [Example 150, Dibenzofuran-4-yl-(4-methoxy-benzyl)-amine]	–	6.07	>118	> 100000	–	–
CCn1c2ccccc2c2cc(NCc3cccc(F)c3C)ccc21 [Example 217, (9-Ethyl-9H-carbazol-3-yl)-(3-fluoro-2-methyl-benzyl)-amine]	–	6.49	>313	> 100000	–	–
CCCC(Cc1ccccc1)Nc1ccc2oc3ccccc3c2c1 (stereo not drawn) [Example 65, (1-Benzyl-butyl)-dibenzofuran-2-yl-amine]	–	–	–	–	5.52	> 100000
O=[N+]([O-])c1ccc(CNc2ccc3oc4ccccc4c3c2)cc1 [Example 60, Dibenzofuran-2-yl-(4-nitro-benzyl)-amine]	–	6.30	>200	> 100000	5.89	> 100000
CSc1ccc(CNc2ccc3oc4ccccc4c3c2)cc1 [Example 61, Dibenzofuran-2-yl-(4-methylsulfanyl-benzyl)-amine]	103 to 104	–	–	–	5.54	> 100000

Second part, led by results:

melting point [°C]	SMILES	pEC50 [1]	TI (EC50/TC50) [1]	CC50 (in vitro) [nM]	pEC50 [2]	CC50 at 7 days (in vitro) [nM]
75 to 77	FC(F)(F)Oc1ccc(CNc2ccc3oc4ccccc4c3c2)cc1	–	–	–	–	–
93 to 94	c1ccc(Oc2cccc(CNc3ccc4oc5ccccc5c4c3)c2)cc1	–	–	–	–	–
91 to 93	c1ccc(Oc2ccc(CNc3ccc4oc5ccccc5c4c3)cc2)cc1	–	–	–	–	–
94 to 95	CC(Nc1ccc2oc3ccccc3c2c1)c1ccccc1 (stereo not drawn)	–	–	–	–	–
81 to 82	c1ccc(CNc2ccc3oc4ccccc4c3c2)cc1	–	–	–	–	–
217 to 218	O=C1c2ccccc2C(=O)N1c1ccc2oc3ccccc3c2c1	–	–	–	–	–
62 to 63	c1ccc2c(c1)oc1ccc(NCc3ccsc3)cc12	–	–	–	–	–
145 to 147	Oc1ccccc1CNc1ccc2oc3ccccc3c2c1	–	–	–	–	–
84 to 85	Cc1ccccc1CNc1ccc2oc3ccccc3c2c1	–	–	–	–	–
85 to 86	c1ccc2c(c1)oc1ccc(NCc3ccc4c(c3)OCO4)cc12	–	–	–	–	–
193 to 195	c1ccc2c(c1)CN(c1ccc3oc4ccccc4c3c1)C2	–	–	–	–	–
